Measured values published in ChEMBL document CHEMBL3272096, “Semisynthetic cephalosporins. Synthesis and structure-activity relationships of 7-sulfonylacetamido-3-cephem-4-carboxylic acids” (1976).
Converted amounts (≈) assume the structure as drawn. The source made the active and inactive calls. The calls are words filed in the database; no cut-off is given here.

How the values were obtained:
Klebsiella pneumoniae = assay: Antibacterial activity against Klebsiella pneumoniae 4200 by two-fold agar dilution method; format: functional
Escherichia coli [1] = assay: Antibacterial activity against Escherichia coli 12140 infected in sc dosed mouse assessed as host protection administered at 1 and 5 hrs post-infection; format: functional; conditions: Escherichia coli, 12140, sc; read-out: PD50
Enterococcus faecalis = assay: Antibacterial activity against Streptococcus faecalis by two-fold agar dilution method; format: functional
Staphylococcus aureus [2] = assay: Antibacterial activity against Staphylococcus aureus 23390 by two-fold agar dilution method; format: functional, organism-based
Shigella flexneri = assay: Antibacterial activity against Shigella paradysenteriae HH 117 by two-fold agar dilution method; format: functional
Klebsiella aerogenes = assay: Antibacterial activity against Enterobacter aerogenes ATCC 13048 by two-fold agar dilution method; format: functional
Escherichia coli [3] = assay: Antibacterial activity against Escherichia coli 12140 by two-fold agar dilution method; format: functional
Pseudomonas aeruginosa = assay: Antibacterial activity against Pseudomonas aeruginosa by two-fold agar dilution method; format: functional, organism-based
Salmonella paratyphi = assay: Antibacterial activity against Salmonella paratyphi ATCC 12176 by two-fold agar dilution method; format: functional, Salmonella enterica subsp. enterica serovar Paratyphi A; conditions: Salmonella enterica
Staphylococcus aureus [4] = assay: Antibacterial activity against penicillin G-resistant Staphylococcus aureus HH 127 by two-fold agar dilution method; format: functional

SMILES	MIC (Klebsiella pneumoniae) [µg/mL]	ED50 (Escherichia coli [1]) [mg/kg]	MIC (Enterococcus faecalis) [µg/mL]	Activity (Staphylococcus aureus [2])	MIC (Shigella flexneri) [µg/mL]	MIC (Klebsiella aerogenes) [µg/mL]	MIC (Escherichia coli [3]) [µg/mL]	Activity (Pseudomonas aeruginosa)	MIC (Salmonella paratyphi) [µg/mL]	MIC (Staphylococcus aureus [4]) [µg/mL]
CC(=O)OCC1=C(C(=O)[O-])N2C(=O)[C@@H](NC(=O)CS(C)(=O)=O)[C@H]2SC1.[Na+]	13	62	> 13	Active	13	> 200	13	inactive	13	3.1
CCCS(=O)(=O)CC(=O)N[C@@H]1C(=O)N2C(C(=O)[O-])=C(CSc3nnc(C)s3)CS[C@H]12.[Na+]	3.1	25	> 13	Active	6.2	50	6.2	inactive	1.6	0.4
CCCCS(=O)(=O)CC(=O)N[C@@H]1C(=O)N2C(C(=O)O)=C(COC(C)=O)CS[C@H]12	13 (≈ 29.9 µM)	180	> 13	Active	6.2 (≈ 14.3 µM)	50 (≈ 115 µM)	13 (≈ 29.9 µM)	inactive	3.1 (≈ 7.13 µM)	0.2 (≈ 0.46 µM)
Cc1nnc(SCC2=C(C(=O)[O-])N3C(=O)[C@@H](NC(=O)CS(C)(=O)=O)[C@H]3SC2)[nH]1.[Na+]	3.1	10	> 13	Active	13	200	6.2	inactive	1.6	1.6
Cn1nnnc1SCC1=C(C(=O)O)N2C(=O)[C@@H](NC(=O)CS(=O)(=O)c3ccccc3)[C@H]2SC1	3.1 (≈ 6.07 µM)	25	> 13	Active	1.6 (≈ 3.13 µM)	13 (≈ 25.5 µM)	3.1 (≈ 6.07 µM)	inactive	6.2 (≈ 12.1 µM)	0.4 (≈ 0.783 µM)
CS(=O)(=O)CC(=O)N[C@@H]1C(=O)N2C(C(=O)[O-])=C(CSc3cnn[nH]3)CS[C@H]12.[Na+]	6.2	–	> 13	Active	13	> 200	13	inactive	6.2	1.6
Cc1nnc(SCC2=C(C(=O)O)N3C(=O)[C@@H](NC(=O)Cn4cnnn4)[C@H]3SC2)s1 [CEFAZOLIN]	0.8 (≈ 1.76 µM)	6	–	Active	0.4 (≈ 0.88 µM)	1.6 (≈ 3.52 µM)	0.8 (≈ 1.76 µM)	–	0.8 (≈ 1.76 µM)	0.4 (≈ 0.88 µM)
CCCS(=O)(=O)CC(=O)N[C@@H]1C(=O)N2C(C(=O)O)=C(COC(C)=O)CS[C@H]12	6.2 (≈ 14.7 µM)	56	> 13	Active	13 (≈ 30.9 µM)	200 (≈ 476 µM)	13 (≈ 30.9 µM)	inactive	3.1 (≈ 7.37 µM)	0.8 (≈ 1.9 µM)
CC(=O)OCC1=C(C(=O)O)N2C(=O)[C@@H](NC(=O)CS(=O)(=O)C(F)(F)F)[C@H]2SC1	6.2 (≈ 13.9 µM)	> 50	> 13	Active	13 (≈ 29.1 µM)	25 (≈ 56 µM)	6.2 (≈ 13.9 µM)	inactive	6.2 (≈ 13.9 µM)	6.2 (≈ 13.9 µM)
CCCCS(=O)(=O)CC(=O)N[C@@H]1C(=O)N2C(C(=O)[O-])=C(CSc3nnnn3C)CS[C@H]12.[Na+]	3.1	21	> 13	Active	3.1	13	3.1	inactive	1.6	0.4
CC(C(=O)N[C@@H]1C(=O)N2C(C(=O)[O-])=C(CSc3nnnn3C)CS[C@H]12)S(C)(=O)=O.[Na+] (stereo partly drawn)	6.2	50	> 13	Active	3.1	13	6.2	inactive	6.2	3.1
CCCS(=O)(=O)CC(=O)N[C@@H]1C(=O)N2C(C(=O)[O-])=C(CSc3nnnn3C)CS[C@H]12.[Na+]	0.8	10	> 13	Active	1.6	6.2	1.6	inactive	0.4	0.4
CC(=O)OCC1=C(C(=O)[O-])N2C(=O)[C@@H](NC(=O)C(C)S(C)(=O)=O)[C@H]2SC1.[Na+] (stereo partly drawn)	3.1	–	> 13	Active	25	50	25	inactive	13	3.1
CCS(=O)(=O)CC(=O)N[C@@H]1C(=O)N2C(C(=O)[O-])=C(COC(C)=O)CS[C@H]12.[Na+]	6.2	70	> 13	Active	25	> 200	25	inactive	3.1	0.8
Cn1cnnc1SCC1=C(C(=O)[O-])N2C(=O)[C@@H](NC(=O)CS(C)(=O)=O)[C@H]2SC1.[Na+]	6.2	22	> 13	Active	–	> 200	6.2	inactive	3.1	3.1
CCCCS(=O)(=O)CC(=O)N[C@@H]1C(=O)N2C(C(=O)[O-])=C(CSc3nnc(C)s3)CS[C@H]12.[Na+]	6.2	> 50	> 13	Active	6.2	25	6.2	inactive	1.6	0.1
CS(=O)(=O)CC(=O)N[C@@H]1C(=O)N2C(C(=O)[O-])=C(CSc3nnn[nH]3)CS[C@H]12.[Na+]	3.1	45	> 13	Active	25	> 200	50	inactive	3.1	6.2
Cc1nnc(SCC2=C(C(=O)[O-])N3C(=O)[C@@H](NC(=O)CS(C)(=O)=O)[C@H]3SC2)s1.[Na+]	3.1	–	> 13	Active	13	> 200	13	inactive	3.1	1.6
CC(=O)OCC1=C(C(=O)[O-])N2C(=O)[C@@H](NC(=O)CS(N)(=O)=O)[C@H]2SC1.[Na+]	25	–	> 13	Active	25	200	50	inactive	13	1.6
CC(=O)OCC1=C(C(=O)[O-])N2C(=O)[C@@H](NC(=O)CS(=O)(=O)c3ccccc3)[C@H]2SC1.[Na+]	13	–	> 13	Active	25	> 200	50	inactive	13	1.6
Cn1nnnc1SCC1=C(C(=O)[O-])N2C(=O)[C@@H](NC(=O)CS(N)(=O)=O)[C@H]2SC1.[Na+]	13	38	> 13	Active	3.1	13	3.1	inactive	1.6	1.6
CCS(=O)(=O)CC(=O)N[C@@H]1C(=O)N2C(C(=O)[O-])=C(CSc3nnnn3C)CS[C@H]12.[Na+]	1.6	7	> 13	Active	1.6	100	1.6	inactive	0.8	0.8
Cn1nnnc1SCC1=C(C(=O)O)N2C(=O)[C@@H](NC(=O)CSC(F)(F)F)[C@H]2SC1 [CEFAZAFLUR]	0.8 (≈ 1.7 µM)	2	–	Active	0.2 (≈ 0.425 µM)	1.6 (≈ 3.4 µM)	0.4 (≈ 0.85 µM)	–	0.4 (≈ 0.85 µM)	0.4 (≈ 0.85 µM)
CC(=O)OCC1=C(C(=O)O)N2C(=O)[C@@H](NC(=O)Cc3cccs3)[C@H]2SC1 [CEPHALOTHIN]	3.1 (≈ 7.82 µM)	50	–	Active	6.2 (≈ 15.6 µM)	50 (≈ 126 µM)	3.1 (≈ 7.82 µM)	–	1.6 (≈ 4.04 µM)	0.2 (≈ 0.504 µM)
Cn1nnnc1SCC1=C(C(=O)[O-])N2C(=O)[C@@H](NC(=O)CS(=O)(=O)C(F)(F)F)[C@H]2SC1.[Na+]	3.1	17	> 13	Active	0.8	3.1	1.6	inactive	1.6	1.6
CCS(=O)(=O)CC(=O)N[C@@H]1C(=O)N2C(C(=O)O)=C(CSc3nnc(C)s3)CS[C@H]12	1.6 (≈ 3.34 µM)	8	> 13	Active	6.2 (≈ 13 µM)	100 (≈ 209 µM)	3.1 (≈ 6.48 µM)	inactive	1.6 (≈ 3.34 µM)	0.4 (≈ 0.836 µM)
Cn1nnnc1SCC1=C(C(=O)[O-])N2C(=O)[C@@H](NC(=O)CS(C)(=O)=O)[C@H]2SC1.[Na+]	1.6	7	> 13	Active	1.6	25	1.6	inactive	0.8	1.6
